According to patent publication US6359133B2, “Halogen pyrimidinyl aryl (thio) ethers as pesticides” (Bayer Aktiengesellschaft, priority 1996, dated 2002):

Experiments:
[1] = physchem
[2] = tested on: Pyriculaia oryzae; assay type: in vivo; details: rice, protective, 750 g/ha, evaluation 4 days after inoculation, vs untreated control
[3] = tested on: Erysiphe graminis f.sp. hordei; test: Erysiphe test (barley)/protective; assay type: in vivo; details: protective, 250 g/ha, evaluation 7 days after inoculation, vs untreated control
Procedure: Erysiphe Test (barley)/Protective Solvent: 10 parts by weight of N-methyl-pyrrolidone. Emulsifier: 0.6 part by weight of alkylaryl polyglycol ether. To produce a suitable preparation of active compound, 1 part by weight of active compound is mixed with the stated amounts of solvent and emulsifier, and the concentrate is diluted with water to the desired concentration. To test for protective activity, young plants are sprayed with the preparation of active compound at the stated application rate. After the spray coating has dried on, the plants are dusted with spores of Erysiphe graminis f.sp. hordei.

[4] = logP determination by HPLC (EEC Directive 79/831 Annex V. A8); details: gradient method, acetonitrile/0.1% aqueous phosphoric acid

| Compound | efficacy [2] | also measured |
| --- | --- | --- |
| CO/N=C(/C(N)=O)c1ccccc1O [Example II-1, 2-(2-hydroxy-phenyl)-2-methoxyimino-acetamide] | – | chromatographic logP [1]: 0.83 |
| CNC(=O)C(=NOC)c1ccccc1Oc1ncnc(Oc2cc(C)ccc2C)c1F [Example 20] | 80% | – |
| CNC(=O)/C(=N/OC)c1ccccc1Oc1ncnc(Oc2ccccc2C)c1F [Example 2, 2-[2-(5-fluoro-6-o-tolyloxy-pyrimidin-4-yloxy)-phenyl]-2-methoxyimino-N-methyl-acetamide] | 80% | efficacy [3]: 100%; chromatographic logP [1]: 3.04 |
| CON=C(C(N)=O)c1ccccc1Oc1ncnc(Oc2ccccc2Cl)c1F [Example 10] | 80% | – |
| CNC(=O)C(=NOC)c1ccccc1Oc1ncnc(Oc2cccc(Cl)c2C)c1F [Example 24] | 80% | – |
| CCC(=O)Oc1ccccc1Oc1ncnc(Oc2ccccc2C(=NOC)C(=O)NC)c1F [Example 9] | 80% | – |
| CNC(=O)C(=NOC)c1ccccc1Oc1ncnc(Oc2ccc(C)cc2Cl)c1F [Example 22] | 80% | – |
| CNC(=O)/C(=N/OC)c1ccccc1Oc1ncnc(Oc2ccccc2Cl)c1F [Example 1, 2-{2-[6-(2-chlorophenoxy)-5-fluoro-pyrimidine4-yloxy]-phenyl}-2-methoxyimino-N-methylacetamide] | 80% | – |
| CNC(=O)C(=NOC)c1ccccc1Oc1ncnc(Oc2c(C)cccc2C)c1F [Example 21] | 80% | – |
| CNC(=O)C(=NOC)c1ccccc1Oc1ncnc(Oc2ccccc2C#N)c1F [Example 4] | 80% | – |
| CNC(=O)C(=NOC)c1ccccc1Oc1ncnc(Oc2ccc(Cl)cc2Cl)c1F [Example 15] | – | logP [4]: 3.61 |
| C=CCOc1ccccc1Oc1ncnc(Oc2ccccc2C(=NOC)C(=O)NC)c1F [Example 8] | 80% | efficacy [3]: 100% |
